Measured values published in US4610868A, “Lipid matrix carriers for use in drug delivery systems” (The Liposome Company, Inc., priority 1984, dated 1986).
Like-named read-outs stand apart in the source and are kept apart here.

What was measured:
[1] = Entrapment of ^14C-sucrose/streptomycin in LMCs (liquid scintillation counting); format: physicochemical; conditions: with streptomycin, corn oil/EPC, water-in-oil emulsion
Experimental: Streptomycin (Sigma Chemical Co., St. Louis, Missouri) and ^14 C-sucrose (New England Nuclear, Boston, Massachusetts, 31.3 μCi/m mole) were used together as model water soluble compounds for entrapment in conjunction with corn oil and EPC. The ratio of corn oil to EPC used to prepare the emulsion was […] (weight/weight basis). The water-in-oil emulsion was prepared as follows: 6 ml of corn oil, 40 mg of EPC and 0.3 ml of phosphate buffered saline (PBS) containing 10 μl of ^14 C-sucrose and 100 mg of streptomycin were sonicated together for 45 seconds, using a Branson Model E sonicator at 22° C. The resulting water-in-oil emulsion was then extruded slowly through a 21 gauge syringe needle into 40 ml of the saturated acetone solution, with rapid stirring.
A cloudy suspension of LMCs resulted that was centrifuged at 10,000×gfor 10 minutes at 4° C. The clear supernatant fluid was removed, and the pellet was washed three times with cold saturated acetone, dried under a nitrogen stream, and resuspended in 10 ml of PBS. The hydrated LMCs were then diluted with an equal volume of Ficoll-Paque (Pharmacia Fine Chemicals, Piscataway, New Jersey) and centrifuged at 10,000×g for 10 minutes. […]
In FIG. 4, the data are based upon the stability of streptomycin-LMCs in serum. […] At the times indicated, the absorbances of the samples at 400 and 600 nm were determined, and the 400/600 ratios were computed.

[2] = Entrapment of indomethacin or diazepam in LMCs (radiolabeled tracer); format: physicochemical
Experimental: Ten mg of indomethacin (Sigma Chemical Co., St. Louis, Missouri) plus 10 μl of the ^14 C-labeled drug as a tracer (New England Nuclear, Boston, Massachusetts, 22 mCi/m mole) were dissolved in 1.5 ml of chloroform. This solution was then combined with 4 ml of corn oil and 150 mg of EPC, and the mixture was slowly extruded through a 21 gauge syringe needle into 20 ml of PBS at 45° C., with stirring. After combining all constituents, the mixture was roto-evaporated at 45° C. to remove the chloroform. One ml of the resulting suspension was then combined with an equal volume of Ficoll-Paque, the mixture was centrifuged at 10,000×g for 10 minutes, and the LMCs, which floated to the top of the gradient, were isolated.
By following the procedure described in Section 6.2.1., supra, 5 mg of diazepam (Abbott Laboratories, N. Chicago, Illinois) with a trace of the ^3 H-labeled drug added (New England Nuclear, Boston, Massachusetts, 76.7 Ci/m mole) were incorporated into LMCs.

[3] = Systemic release (urine) of oxytetracycline after topical administration; format: in vivo, Swiss Webster mice; conditions: 0.2 ml of 100 mg/ml, 1, 18, 44 and 72 hours
Experimental: (§1) In the following experiment, two groups of adult male Swiss Webster mice were treated with oxytetracycline as follows: 5 mice per group were depilitated on the back of their necks and 0.2 ml of 100 mg/ml oxytetracycline was topically applied to the depilitated area. The control group received oxytetracycline in PBS whereas the second group received oxytetracycline encapsulated in LMCs prepared as described in Section 6.1.3.
Clean catch urine samples were taken at 1, 18, 44, and 72 hours after topical application and aliquots were analyzed for the presence of oxytetracycline using the bioassay previously described in Sections 6.1.2, 7.1, and 7.2.

[4] = format: in vivo, Swiss Webster mice; conditions: 80 mg/kg IM
Experimental: LMCs containing oxytetracycline--HCl (Sigma Chemical Co., St. Louis, Missouri) were prepared as described in Section 6.1.3. supra. The LMCs thus produced contained 20 mg of oxytetracycline per ml of hydrated LMCs, as determined by the bioassay described in Section 6.1.3. Ten 25 g female adult Swiss Webster mice were then injected IM with 80 mg/kg of oxytetracycline in one hind leg, using either LMC-oxytetracycline or the free drug. In both cases, the antibiotic was administered in 0.1 ml of physiological saline.
At the times indicated in FIG. 3, samples of clean-catch urine were taken and aliquots were plated onto lawns of S. aureus (ATCC 11632) as described in Section 7.1. Antibiotic levels were quantified by comparison to an oxytetracycline standard curve. […] By 174 hours following injection, urinary levels of oxytetracycline were undetectable.

[5] = Fluorescence/retention of oxytetracycline in skin after topical administration; format: in vivo, Swiss Webster mice; conditions: 0.2 ml of 100 mg/ml
Experimental: as §1
On a daily basis the treated area of each mouse was illuminated with ultraviolet light and inspected for fluorescence. Since oxytetracycline is fluorescent, the fluorescence of the treated skin is an indication of the presence of the drug in the skin. Fluorescence could be detected for only 2 days in the control group treated with the aqueous solution of oxytetracycline. […] In contrast, fluorescence could be detected up to 4 days in the group that was treated with oxytetracycline-LMCs.

[6] = design: species or system Hartley guinea pigs; conditions: guinea pig, in vivo, ip
Experimental: To investigate the drug release characteristics of LMCs in vivo, gentamicin-LMC preparations were injected intraperitoneally (IP) into experimental animals. The final distribution of the drug was then compared with that of similarly injected free gentamicin.
LMCs were prepared as described in Section 6.1.2., using 6 ml of corn oil, 0.3 ml of PBS, 40 mg of EPC, 100 mg of gentamicin (with a small amount of I-gentamicin added as a tracer) and 40 ml of acetone. The resulting product contained 0.5 mg of gentamicin per mg of dry weight LMCs, as determined by gamma counting.
Two groups of 850 g female adult Hartley guinea pigs (Hilltop Farms, Scottsdale, Pennsylvania) were treated as follows: Animals in one group each received 0.3 ml of 100 μg/ml gentamicin in saline (with a small amount of ^125 I-gentamicin added as a tracer), IP. IP injection leads to rapid systemic distribution of the injected material. Animals in the other group received the same quantity of gentamicin entrapped in LMCs. At various times after injection pairs of animals were sacrificed, the hearts, spleens, kidneys and livers were removed, and the quantity of gentamicin in each organ was determined by counting in a crystal gamma counter.

OC[C@H]1O[C@@](CO)(O[C@H]2O[C@H](CO)[C@@H](O)[C@H](O)[C@H]2O)[C@@H](O)[C@@H]1O [^14 C-sucrose, sucrose]
initial amount of ^14 C-sucrose entrapped in the LMCs [1]: 96.5%

CN1C(=O)CN=C(c2ccccc2)c2cc(Cl)ccc21 [diazepam]
degree of entrapment [2]: 93%

COc1ccc2c(c1)c(CC(=O)O)c(C)n2C(=O)c1ccc(Cl)cc1 [indomethacin]
degree of entrapment [2]: 84%
degree of entrapment (starting amount incorporated into the LMCs) ([2]; corn oil/EPC, chloroform): 84%

CN(C)C1C(=O)C(C(N)=O)=C(O)C2(O)C(=O)C3=C(O)c4c(O)cccc4C(C)(O)C3C(O)C12 (stereo not drawn) [oxytetracycline]
oxytetracycline in urine [3]: No detectable levels
time within which urinary levels diminished to zero [4]: ≤ 30 h
duration of detectable skin fluorescence [5]: 2 days
removal from skin by washing [5]: could easily be washed off

gentamicin
Recovery of Gentamicin, Heart ([6]; 15 min): 0.17 % of Total Administered
Recovery of Gentamicin, Kidney ([6]; 15 min): 2.53 % of Total Administered
Recovery of Gentamicin, Liver ([6]; 15 min): 2.60 % of Total Administered
Recovery of Gentamicin, Spleen ([6]; 15 min): 0.09 % of Total Administered
Recovery of Gentamicin, Heart ([6]; 30 min): 1.23 % of Total Administered
Recovery of Gentamicin, Kidney ([6]; 30 min): 4.32 % of Total Administered
Recovery of Gentamicin, Liver ([6]; 30 min): 3.14 % of Total Administered
Recovery of Gentamicin, Spleen ([6]; 30 min): 0.08 % of Total Administered
Recovery of Gentamicin, Heart ([6]; 60 min): 0.15 % of Total Administered
Recovery of Gentamicin, Kidney ([6]; 60 min): 7.04 % of Total Administered
Recovery of Gentamicin, Liver ([6]; 60 min): 2.28 % of Total Administered
Recovery of Gentamicin, Spleen ([6]; 60 min): 0.05 % of Total Administered
Recovery of Gentamicin, Heart ([6]; 120 min): 0.13 % of Total Administered
Recovery of Gentamicin, Kidney ([6]; 120 min): 7.27 % of Total Administered
Recovery of Gentamicin, Liver ([6]; 120 min): 2.00 % of Total Administered
Recovery of Gentamicin, Spleen ([6]; 120 min): 0.04 % of Total Administered
